Results on 77 compounds are retold here after PubChem BioAssay AID1963597 (National Center for Advancing Translational Sciences (NCATS), 2024).

A word on the half-life: it is the time in which the quantity being followed falls by half.

Non-standard residues stand in square brackets, D forms with d. Residues, ends and D or L forms follow the SMILES beside them. *: point of attachment. Sta = CC(C)C[C@H](N)[C@@H](O)CC(=O)O; Isovaleryl = CC(C)CC(=O)*

In this data set the test system is human liver microsomes, metabolic stability half-life. The experiment in a line: NCATS Human Liver Microsomal (HLM) Stability Profiling. The settings on record: higher = more stable; screened at 1 µM (by protocol). The text has this: Assay submitter (PI): Dr. Pranav Shah
NIH Center for Advancing Translational Sciences
Pharmacokinetic issues were the leading cause of drug attrition, accounting for approximately 40% of all cases before the turn of the century. To this end, several high-throughput in vitro assays like microsomal stability have been developed to evaluate the pharmacokinetic profiles of compounds in early stages of drug discovery. At NCATS, a single-point rat liver microsomal (RLM) stability assay is used as a Tier I assay, while human liver microsomal (HLM) stability is employed as a Tier II assay. While it is beneficial to have compound libraries screened for HLM stability, the increasing magnitude of hits routinely generated, and the time- and re-source-intensive nature of the assay makes it important to find alternatives. One strategy is to rely on in silico models that have been developed using data generated from these assays. Herein, we describe the development of an HLM stability prediction model using our in-house dataset of ~7,000 compounds, employing both traditional and advanced machine learning methods. Additionally, the strong correlation between our RLM and HLM data was further reinforced by the fact that our HLM model performance improved after adding RLM stability predictions as an input descriptor. […] The best model along with a subset of our dataset has been made publicly accessible on the NCATS@ADME website for the benefit of the greater drug discovery community.
Microsomal Stability Assay
The substrate depletion method, also called the in vitro t1/2 method was used to analyze test compounds. Incubation and liquid handling were carried out using a previously described method (Shah et al., 2016). Briefly, each reaction mixture (110 µL) consisted of a test article (1 µM), human liver microsomes (0.5 mg/mL), and NADPH regenerating system in phosphate buffer at pH 7.4. Samples were incubated in 384-well plates at 37 degrees C for 0, 5, 10, 15, 30 and 60 min. At each time point, 10 µL of the incubation mixture was aspirated into another 384-well plate which contained cold acetonitrile (ACN) with internal standard (albendazole). All plates were centrifuged at 3000 rpm for 20 min at 4 degrees C, and the supernatants were transferred to a 384-well injection plate. Sample quantification and analysis was performed using a previously described method (Shah et al., 2016, Siramshetty et al., 2020).
1: Shah, P. et al. An Automated High-Throughput Metabolic Stability Assay Using an Integrated High-Resolution Accurate Mass Method and Automated Data Analysis Software. Drug Metab Dispos 44, 1653-1661 (2016).
2: Siramshetty et al. Retrospective assessment of rat liver microsomal stability at NCATS: data and QSAR models. Sci Rep 26;10(1):20713 (2020).
Background: Liver microsomes are a subcellular fraction often used to study metabolism.
Consider `Cc1cccc(N2CCN(C(=O)CCC(=O)NNc3nc4ccccc4c4nc(C)nn34)CC2C)c1` (configuration not stated), for which the half-life is 6.71 min.
The compound `Cc1cccc(C)c1NC(=O)CN1CCCC1` displayed a half-life of more than 120 min.
The compound `O=C(N[C@@H]1CC[C@@H](c2cccc(F)c2F)CN(CC(F)(F)F)C1=O)N1CCC(n2c(=O)[nH]c3ncccc32)CC1` displayed a half-life of 60.2 min.
As for `O=C(NC1(c2ccccc2)CC1)c1c(CN2CCC(N3CCCCC3)CC2)c(-c2cccc(C(F)(F)F)c2)nc2cc(Br)ccc12`, the half-life stood at 28.1 min.
`O=c1[nH]c2cccc(N3CCN(Cc4ccc(-c5ccccc5)cc4)CC3)c2o1` showed a half-life of 31.7 min.
Consider `COC(=O)[C@@H]1CC2=CC(=O)CC[C@]2(C)[C@@]23O[C@@H]2C[C@@]2(C)[C@H](CC[C@@]24CCC(=O)O4)[C@@H]13`, for which the half-life is more than 120 min.
Compound `CN(C)CCN(Cc1cccs1)c1ccccn1` yielded a half-life of 23.8 min.
`CC(C)c1ccc(-n2ncc3c(=O)n(CC(=O)Nc4cc(F)ccc4Cl)cnc32)cc1`: the half-life amounted to 23.9 min.
On to `COc1ccc(C(=O)C2CCN(CC(=O)N(Cc3nc4c(c(=O)[nH]3)COCC4)CC3CC3)CC2)cc1`, for which the half-life was determined as 81.7 min.
`O=c1cc(-c2ccc(O)cc2)oc2cc(O)cc(O)c12` displayed a half-life of 18.8 min.
Compound `COc1ccccc1OC[C@H](O)COC(N)=O` registered a half-life of more than 120 min.
On to `CC(C)(N)Cc1ccccc1Cl`, for which the half-life is more than 120 min.
As to `CC(=O)c1ccc(N2CCN(c3ncnc4c3cnn4C)CC2)cc1`, the half-life came to 109 min.
Take `CC(C)(N)c1ncc(-c2ccc(OC(F)(F)F)cc2)[nH]1`: the half-life was more than 120 min.
As for `COc1cc2c(C(=O)N(C)c3cccc(C(F)(F)F)c3)cn(CC(C)C)c(=O)c2cc1OC`, the half-life amounted to 0.93 min.
`Cc1nc2c3ccccc3nc(NNC(=O)CCC(=O)N3CCN(c4ccccc4)CC3)n2n1` came in with a half-life of 107 min.
`CN(C)CCC[C@@]1(c2ccc(F)cc2)OCc2cc(C#N)ccc21` showed a half-life of more than 120 min.
As to `COc1cc(C=O)ccc1O`, the half-life was 97.1 min.
With `CN(C)S(=O)(=O)c1ccc(S(=O)(=O)N(Cc2ccco2)Cc2ccccc2Cl)cc1` the figure was 3.33 min.
`COCCCNC(=O)CCC(=O)NNc1nc2ccccc2c2nc(-c3ccccc3)nn12` came in with a half-life of more than 120 min.
Next, `O=C(Nc1ccc(-c2ccnc(Nc3ccc(N4CCOCC4)cc3)n2)cc1)C1CCCN1` (configuration not stated): more than 120 min; `O=C(NN1CCCC1)NS(=O)(=O)c1ccc(Cl)cc1`: more than 120 min.
Take `CCCC(Nc1nc(-c2ccc(NC(=O)NCC)c(OC)c2)ncc1C)c1cccnc1` (configuration not stated): the half-life worked out at 30.5 min.
Compound `Cc1ccc(-c2noc([C@@H]3Cc4nc[nH]c4CN3Cc3cccc(C#N)c3)n2)cc1` had a half-life of 11.4 min.
In the case of `COc1cc(C(c2c(C)[nH][nH]c2=O)c2c(C)[nH][nH]c2=O)ccc1OC(=O)c1cccc(C)c1`, the half-life stood at 2.21 min.
In turn, `COc1cnc(-c2ccc(Cn3c(CC(C)(C)C(=O)O)c(SC(C)(C)C)c4cc(OC[C@@H]5Cc6ccccc6N5C(C)=O)ccc43)cc2)nc1` returned a half-life of 12.1 min.
Consider `Nc1ccc(C(=O)Nc2cccc(-c3nc(N4CCOCC4)c4oc5ncccc5c4n3)c2)cn1`, for which the half-life turned out to be 56.2 min.
`CC(C)(C)NC[C@H](O)COc1cccc2c1CCCC2=O` registered a half-life of more than 120 min.
In turn, `COc1cccc(OC)c1-c1nc(C(=O)N[C@@H](CC(C)C)C(=O)O)cn1-c1ccnc2cc(Cl)ccc12` showed a half-life of more than 120 min.
Next, `O=C1CCC(c2ccccc2)(C2CCN(Cc3ccc(I)cc3)CC2)C(=O)N1` (configuration not stated): more than 120 min; `COc1ccc(OC)c(C2C(C#N)=C(N)Oc3n[nH]c(-c4ccc5ccccc5c4)c32)c1` (configuration not stated): more than 120 min.
Regarding `CCOc1ccc(NC(=O)CC(C)O)cc1` (configuration not stated), the half-life was more than 120 min.
With `C1COC(NC(C2CC2)C2CC2)=N1`, the half-life was more than 120 min.
`CC(=O)NC[C@H]1CN(c2ccc(N3CCSCC3)c(F)c2)C(=O)O1` showed a half-life of more than 120 min.
On to `CC(C)CCCC(C)N` (configuration not stated), for which the half-life was more than 120 min.
For `O=c1oc2ccccc2c(O)c1Cc1c(O)c2ccccc2oc1=O`, the half-life is 33.3 min.
`COc1cc(C)c(Sc2cnc(NC(=O)c3ccc(CNC(C)C(C)C)cc3)s2)cc1C(=O)N1CCN(C(C)=O)CC1` (configuration not stated) came in with a half-life of 8.06 min.
Regarding `Nc1c(Br)cc(Br)cc1CNC1CCC(O)CC1` (configuration not stated), the half-life came out at 110 min.
Next, `COC(=O)[C@H](Cc1ccccc1)NC(=O)[C@@H](N)CC(=O)O` (H-Asp-Phe-OMe): 40.7 min; `Cc1cc(=O)n(-c2ccccc2)n1C`: more than 120 min.
With `CCN1CC(CCN2CCOCC2)C(c2ccccc2)(c2ccccc2)C1=O` (configuration not stated) the figure was 33.9 min.
Compound `CCc1nn(C)c(C(=O)NCc2ccc(Oc3ccc(C)cc3)cc2)c1Cl` showed a half-life of 7.51 min.
Take `Nc1nc(NCC2CCC(CNS(=O)(=O)c3cccc4ccccc34)CC2)nc2ccccc12` (configuration not stated): the half-life turned out to be 1.35 min.
Compound `CC(C)(O)c1ccccc1CC[C@H](SCC1(CC(=O)O)CC1)c1cccc(/C=C/c2ccc3ccc(Cl)cc3n2)c1` displayed a half-life of 36.5 min.
As to `CCN1CCN(C(=O)c2cc(-c3ccc(F)cc3)nc3c2cnn3C)CC1`, the half-life came out at 99.2 min.
Turning to `CC(C)(C)NCC(O)COc1ccc(NC(=O)NC2CCCCC2)cc1` (configuration not stated), the half-life was more than 120 min.
Next, `Cc1ccccc1C(=O)N1CCC(C(=O)N2CCC(N3Cc4ccccc4C3=O)CC2)CC1`: 93.1 min; `COc1cc(C(=S)N2CCOCC2)cc(OC)c1OC`: more than 120 min.
As to `CCN(CC)C(=O)C1CN2CCc3cc(OC)c(OC)cc3C2CC1OC(C)=O` (configuration not stated), the half-life is more than 120 min.
Regarding `CCOc1ccc(NC(=O)N2CCN(c3ccc(Cl)c(Cl)c3)CC2)cc1`, the half-life is more than 120 min.
Take `Cc1nc(N)nc(N)c1-c1ccc(Cl)c(Cl)c1`: the half-life is more than 120 min.
For the compound `Nc1ccccc1NC(=O)c1ccc(CNc2nccc(-c3cccnc3)n2)cc1`, the half-life is more than 120 min.
With `CC(=O)OCC(CCn1cnc2cnc(N)nc21)COC(C)=O` the figure was 2.34 min; with `Cc1ccc(NC(=O)Nc2cccs2)c(C)c1`, 23.8 min.
The compound `O=[N+]([O-])c1cccc(S(=O)(=O)NCCNS(=O)(=O)c2cccc([N+](=O)[O-])c2)c1` had a half-life of 52.3 min.
Regarding `CC(=O)Nc1cccc(O)c1`, the half-life is more than 120 min.
With `O=C(Cc1ccc(-c2ccccc2)cc1)NC1CCC1` the figure was 1.5 min; with `CCOCCn1c(C2CCN(CCc3ccc(C(C)(C)C(=O)O)cc3)CC2)nc2ccccc21`, more than 120 min; with `Clc1ccc(N2CCN(c3ncnc4c3nc3n4CCCC3)CC2)cc1`, 37.9 min.
For `CCCc1ccc(OCC(=O)N2CCN(C(=O)COc3ccc(CCC)cc3OC)CC2)c(OC)c1`, the half-life stood at 2.8 min.
Compound `CC(C)CC(=O)N[C@H](C(=O)N[C@H](C(=O)N[C@@H](CC(C)C)[C@@H](O)CC(=O)N[C@@H](C)C(=O)N[C@@H](CC(C)C)[C@@H](O)CC(=O)O)C(C)C)C(C)C` (Isovaleryl-VV[Sta]A[Sta]-OH) returned a half-life of more than 120 min.
For the compound `Cn1cnc2c1c(=O)[nH]c(=O)n2C`, the half-life came out at 60.4 min.
`CCCCCCCCC=CCCCCCCCC(=O)NCCOC(=O)CC(C(=O)O)S(=O)(=O)O` (configuration not stated) came in with a half-life of more than 120 min.
`CCOC(=O)NNc1nncc2ccccc12` yielded a half-life of 97.1 min.
With `CCCC(CCC)C(=O)Nc1ccn([C@@H]2O[C@H](CO)[C@@H](O)C2(F)F)c(=O)n1`, the half-life is more than 120 min.
As to `COc1ccc(-c2ccc3cc(C(=O)O)ccc3c2)cc1C12CC3CC(CC(C3)C1)C2`, the half-life was found to be 46.1 min.
`CCOc1ccc(NS(=O)(=O)c2ccc(N)cc2)nn1` yielded a half-life of more than 120 min.
Take `Cn1ncc(Cl)c1-c1cc(C(=O)N[C@H](CN)Cc2ccc(F)c(F)c2)sc1Cl`: the half-life amounted to 109 min.
As for `Cc1ccc(S(=O)(=O)NC(=O)NC2CCCCC2)cc1`, the half-life was more than 120 min.
The compound `COc1cc(C(=O)NC(c2ccccc2Cl)c2cc(Cl)c3cccnc3c2O)cc(OC)c1OC` (configuration not stated) registered a half-life of 25.6 min.
In turn, `COc1ccc(C(=O)NC(c2ccccc2Cl)c2cc(Cl)c3cccnc3c2O)cc1` (configuration not stated) came in with a half-life of 37.1 min.
In turn, `CNc1cccc(CCOc2ccc3c(c2)CN(CC(F)(F)F)C(=O)[C@H](CC(=O)O)C3)n1` returned a half-life of more than 120 min.
For the compound `COc1cc(/C=N\NC(=O)c2ccc3c(c2)OCO3)ccc1OCc1ccccc1`, the half-life came out at 23.5 min.
Next, `CCN1CCc2nc(N)oc2CC1`: 112 min; `CCOc1ccccc1OCCN[C@H](C)Cc1ccc(OC)c(S(N)(=O)=O)c1`: more than 120 min.
With `O=C(O)c1ccc(CN2CCOC[C@H]2c2ncc(-c3ccc(F)cc3)[nH]2)cc1`, the half-life is more than 120 min.
With `OCc1ccccn1` the figure was more than 120 min.
